# Experiments:
# Format in all cases: biochemical
# [1] = molecular target: T1, MMP-13 (Homo sapiens, UniProt P45452); experiment: Assay for inhibitory activities on MMPs (fluorogenic peptide substrate), MMP-13
# T1 construct: catalytic domain (^104Tyr˜^267Gly) was amplified with RT-PCR; His-tag; enterokinase digestion-site
# Procedure: In regard to MMP-13, mRNA was prepared from carcinoma cell SW1353 derived from human cartilage stimulate by IL-1 and TNF, and catalytic domain (^[…]) was amplified with RT-PCR. This was cloned in Escherichia coli expression vector […] inserted with His-tag sequence and enterokinase digestion-site, induced and expressed by IPTG (Isopropyl-β-D-thiogalactopyranoside) and expressed in an insoluble fraction. Isolation of MMP-13 from an insoluble fraction was carried out by dissolving in modifier (6 M urea) by a usual method and purification with metal chelate chromatography (Ni […] Sepharose). And then removing modifier (6 M urea) with dialyze and refolding of the enzyme spontaneously gave activated MMP-13. The enzymatic activity on MMPs was analyzed by the method described in “C. Graham Knight, Frances Willenbrock and Gillian Murphy: A novel coumarin-labelled peptide for sensitive continuous assays of the matrix metalloproteinases: FEBS LETT., 296, (1992), 263-266”. The substrate: MOCAc-[…] was purchased from Peptide Institute, Inc., Osaka, Japan. The measurement of the inhibitory activities (IC50) was carried out by the following four methods; (A) Reaction with substrate, enzyme (MMPs) and inhibitor (B) Reaction with substrate and inhibitor, without enzyme (C) Reaction with substrate and enzyme (MMPs), without inhibitor (D) Reaction with substrate only IC50 values were calculated by using the following formula and each fluorescence values of above four methods (A to D). % inhibition={1-(A-B)/(C-D)}×100 IC50 means the concentration required to inhibit 50% of the enzyme activity. The value of inhibitory activity against MMP-2, MMP-8, MMP-9, MMP-12, and MMP-13 measured by above mentioned methods are shown in Table 25 and 26.
# [2] = molecular target: T2, MMP-2 (Homo sapiens, UniProt P08253); experiment: Assay for inhibitory activities on MMPs (fluorogenic peptide substrate), MMP-2
# T2 sequence (P08253 110-660): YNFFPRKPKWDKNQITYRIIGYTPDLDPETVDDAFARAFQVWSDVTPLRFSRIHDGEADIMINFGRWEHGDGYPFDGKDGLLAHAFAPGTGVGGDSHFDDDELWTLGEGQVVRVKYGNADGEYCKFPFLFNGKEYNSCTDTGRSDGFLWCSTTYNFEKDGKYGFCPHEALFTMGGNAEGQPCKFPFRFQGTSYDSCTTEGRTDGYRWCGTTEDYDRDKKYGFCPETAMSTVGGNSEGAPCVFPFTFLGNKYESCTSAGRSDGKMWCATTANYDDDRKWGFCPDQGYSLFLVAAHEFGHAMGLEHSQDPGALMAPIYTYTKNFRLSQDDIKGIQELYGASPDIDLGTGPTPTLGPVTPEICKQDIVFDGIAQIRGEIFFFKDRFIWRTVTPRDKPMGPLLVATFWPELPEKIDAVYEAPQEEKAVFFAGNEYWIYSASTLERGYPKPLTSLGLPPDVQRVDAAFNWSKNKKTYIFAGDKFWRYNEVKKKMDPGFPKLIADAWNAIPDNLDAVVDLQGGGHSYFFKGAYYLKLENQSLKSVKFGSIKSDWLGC
# Procedure: MMP-2 was purchased from Calbiochem-Novabiochem International, Inc.
# (§1) The enzymatic activity on MMPs was analyzed by the method described in “C. Graham Knight, Frances Willenbrock and Gillian Murphy: A novel coumarin-labelled peptide for sensitive continuous assays of the matrix metalloproteinases: FEBS LETT., 296, (1992), 263-266”. The substrate: MOCAc-Pro-Leu-Gly-Leu-A2Pr(DNP)-Ala-Arg-NH2 was purchased from Peptide Institute, Inc., Osaka, Japan. The measurement of the inhibitory activities (IC50) was carried out by the following four methods;
# (§2) (A) Reaction with substrate, enzyme (MMPs) and inhibitor
# (§3) (B) Reaction with substrate and inhibitor, without enzyme
# (§4) (C) Reaction with substrate and enzyme (MMPs), without inhibitor
# (§5) (D) Reaction with substrate only
# (§6) IC50 values were calculated by using the following formula and each fluorescence values of above four methods (A to D).
# (§7) % inhibition={1-(A−B)/(C−D)}×100
# (§8) IC50 means the concentration required to inhibit 50% of the enzyme activity.
# (§9) The value of inhibitory activity against MMP-2, MMP-8, MMP-9, MMP-12, and MMP-13 measured by above mentioned methods are shown in Table 25 and 26.
# [3] = molecular target: T3, MMP-12 (Homo sapiens, UniProt P39900); experiment: Assay for inhibitory activities on MMPs (fluorogenic peptide substrate), MMP-12
# T3 construct: In regard to MMP-12, catalytic domain (^100Phe˜^263Gly) was amplified with RT-PCR; His-tag; enterokinase digestion-site
# Procedure: In regard to MMP-12, catalytic domain (^100Phe˜^263Gly) was amplified with RT-PCR from Human Placenta Total RNA. This was cloned in Escherichia coli expression vector pTrc99AHE inserted with His-tag sequence and enterokinase digestion-site, induced and expressed by IPTG (Isopropyl-β-D-thiogalactopyranoside) and expressed in an insoluble fraction. Isolation of MMP-12 from an insoluble fraction was carried out by dissolving in modifier (6 M urea) by a usual method and purification with metal chelate chromatography (Ni Chelateing Sepharose). And then removing modifier (6 M urea) with dialysis and refolding of the enzyme spontaneously gave activated MMP-12.
# as §1, §2, §3, §4, §5, §6, §7, §8, §9
# [4] = molecular target: T4, MMP-8 (Homo sapiens, UniProt P22894); experiment: Assay for inhibitory activities on MMPs (fluorogenic peptide substrate), MMP-8
# T4 construct: In regard to MMP-8, catalytic domain (^99Phe˜^262Gly) was amplified with PCR; His-tag; enterokinase digestion-site
# Excerpt: In regard to MMP-8, catalytic domain (^99Phe˜^262Gly) was amplified with PCR using commercial available Human Bone Marrow cDNA. This was cloned in Escherichia coli expression vector pTrc99AHE inserted with His-tag sequence and enterokinase digestion-site, induced and expressed by IPTG (Isopropyl-β-D-thiogalactopyranoside) and expressed in a insoluble fraction (Than F. Ho, M. Walid Qoronfleh, Robert C. Wahl, Trica A. Pulvino, Karen J. Vavra, Joe Falvo, Tracey M. Banks, Patricia G. Brake and Richard B. Ciccarelli: Gene expression, purification and characterization of recombinant human neutrophil collagenase. Gene 146, (1994) 297-301. It was prepared by the method in a slight modification). Isolation of MMP-8 from an insoluble fraction was carried out by dissolving in modifier (6 M urea) by a usual method and purification with metal chelate chromatography. And then removing modifier (6 M urea) with dialysis and refolding of the enzyme spontaneously gave activated MMP-8.
# as §1, §2, §3, §4, §5, §6, §7, §8, §9
# [5] = molecular target: MMP-9 (Homo sapiens, UniProt P14780); experiment: Assay for inhibitory activities on MMPs (fluorogenic peptide substrate), MMP-9
# Excerpt: MMP-9 was isolated and purified by the procedure of Y. Okada et al. (Yasunori Okada, Yukio Gonoji, Katsumi Naka, Katsuro Tomita, Isao Nakanishi, Kazushi Iwata, Kyoko Yamashita, and Taro Hayakawa: Matrix metalloproteinase 9 (92-kDa gelatinase/type IV collagenase) from HT1080 human fibrosarcoma cells. Purification and activation of the precursor and enzymic properties, J. Biol. Chem., 1992, 267, 21712-21719) in combination with other following methods: 1) Yasunori Okada, Tatsuhisa Morodomi, Jan J, Enghild, Ko Suzuki, Atsushi Yasui, Isao Nakanishi, Guy Salvesen and Hideaki Nagase: Matrix metalloproteinase 2 from human rheumatoid synovial fibroblasts. Purification and activation of the precursor and enzymic properties, Eur. J. Biochem., 1990, 194, 721-730; 2) Robin V Ward, Rosalind M Hembry, John J Reynolds and Gillian Murphy: The purification of tissue inhibitor of metalloproteinase-2 from its 72 kDa progelatinase complex. Biochem. J., 1991, 278, 179-187. In detail, human fibrosarcoma ATCC HT1080 cell line was cultured to confluent in Dulbecco's Modified Medium (DMEM) containing 10% fetal-calf serum at 37° C. for 48 hours. Subsequently, the medium of confluent culture was changed to serum-free DMEM medium. To obtain MMP-9, phorbol-12-myristate-13-acetate (TPA) must be added to this serum-free DMEM medium at a concentration of 50 ng/ml. The TPA-treated medium was centrifuged at 3000 rpm for 15 min, and the supernatant was concentrated to 450 ml by a Toyo-Roshi UP-20 apparatus with an ultrafiltration membrane. Then, proMMP-9 in this concentrated solution was purified by using columns of Gelatin-Sepharose and Concanavalin A-Sepharose. The pool containing proMMP-9 was dialyzed, concentrated (Toyo-Roshi UP-20) and applied to columns of Sephacryl S-200 and Green A matrix for the separation from TIMPs. The obtained proMMP-9 fraction was activated by TPCK-Trypsin (Final conc.: 3 μg/501 React Mix.).
# as §1, §2, §3, §4, §5, §6, §7, §8, §9
# T3 sequence (P39900 100-263): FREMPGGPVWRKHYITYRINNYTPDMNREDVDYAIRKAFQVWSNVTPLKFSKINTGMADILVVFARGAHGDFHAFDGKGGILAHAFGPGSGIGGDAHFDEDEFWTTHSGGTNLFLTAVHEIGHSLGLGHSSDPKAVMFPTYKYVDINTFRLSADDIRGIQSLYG
# T4 sequence (P22894 99-262): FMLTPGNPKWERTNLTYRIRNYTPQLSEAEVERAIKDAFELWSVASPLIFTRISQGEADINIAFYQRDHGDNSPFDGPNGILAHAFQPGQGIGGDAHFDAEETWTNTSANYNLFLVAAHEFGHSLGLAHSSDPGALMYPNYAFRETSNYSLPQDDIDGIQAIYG
# Chain of MMP-9 (P14780 107-707): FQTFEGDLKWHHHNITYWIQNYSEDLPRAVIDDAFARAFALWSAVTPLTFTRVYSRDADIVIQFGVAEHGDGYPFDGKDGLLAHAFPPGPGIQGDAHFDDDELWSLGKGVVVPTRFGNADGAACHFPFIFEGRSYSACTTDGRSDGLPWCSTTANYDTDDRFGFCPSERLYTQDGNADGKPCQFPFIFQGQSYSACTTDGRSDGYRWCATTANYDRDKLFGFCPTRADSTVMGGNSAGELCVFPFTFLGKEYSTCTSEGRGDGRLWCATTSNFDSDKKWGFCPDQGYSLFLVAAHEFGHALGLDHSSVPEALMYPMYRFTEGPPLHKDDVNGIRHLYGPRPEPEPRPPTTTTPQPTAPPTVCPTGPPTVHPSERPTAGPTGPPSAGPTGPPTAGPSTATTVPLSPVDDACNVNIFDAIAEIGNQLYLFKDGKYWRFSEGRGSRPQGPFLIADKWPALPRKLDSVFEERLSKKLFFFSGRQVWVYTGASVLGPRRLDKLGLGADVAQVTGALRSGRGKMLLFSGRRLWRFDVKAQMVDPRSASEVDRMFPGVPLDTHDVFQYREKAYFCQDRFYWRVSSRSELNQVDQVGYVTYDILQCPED
SMILES,IC50 [1],IC50 [2],IC50 [3],IC50 [4],IC50 [5]
O=C(Nc1ccc(-c2ccc(S(=O)(=O)N[C@H](Cc3ccccc3)C(=O)O)cc2)cc1)c1ccc(F)c(F)c1 [VI-11],38.8 nM,139 nM,9010 nM,> 10000 nM,> 10000 nM
COc1ccc2cc(C#Cc3ccc(-c4ccc(S(=O)(=O)N[C@@H](C(=O)O)C(C)C)cc4)cc3)ccc2c1 [III-20],15 nM,167 nM,128 nM,154 nM,> 10000 nM
COc1ccc2cc(C#Cc3ccc(-c4ccc(S(=O)(=O)N[C@@H](Cc5c[nH]c6ccccc56)C(=O)O)cc4)cc3)ccc2c1 [III-31],20.1 nM,> 10000 nM,901 nM,4460 nM,> 10000 nM
CC(C)C[C@@H](NS(=O)(=O)c1ccc(-c2ccc(C#Cc3ccc4ccccc4c3)cc2)cc1)C(=O)O [III-6],15.1 nM,499 nM,363 nM,261 nM,> 10000 nM
O=C(Nc1ccc(-c2ccc(S(=O)(=O)N[C@H](Cc3ccccc3)C(=O)O)cc2)cc1)c1cc2ccccc2s1 [VI-47],136 nM,> 10000 nM,> 10000 nM,> 10000 nM,> 10000 nM
COc1ccc2cc(C#Cc3ccc(-c4ccc(S(=O)(=O)NC(Cc5ccc(F)cc5)C(=O)O)cc4)cc3)ccc2c1 (stereo not drawn) [III-47],143 nM,> 10000 nM,> 10000 nM,> 10000 nM,> 10000 nM
CSCC[C@H](NS(=O)(=O)c1ccc(-c2ccc(NC(=O)c3ccc4ccccc4c3)cc2)cc1)C(=O)O [VI-44],48.4 nM,502 nM,162 nM,252 nM,> 10000 nM
CC(C)(C)[C@H](NS(=O)(=O)c1ccc(-c2ccc(OCc3ccc4ccccc4c3)cc2)cc1)C(=O)O [VII-8],7.93 nM,91 nM,–,–,–
COc1ccc2cc(C#Cc3ccc(-c4ccc(S(=O)(=O)N[C@H](Cc5ccc(O)cc5)C(=O)O)cc4)cc3)ccc2c1 [III-46],9.12 nM,57.5 nM,–,–,–
COc1ccc2cc(C#Cc3ccc(-c4ccc(S(=O)(=O)NC5(C(=O)O)CCCC5)cc4)cc3)ccc2c1 [III-65],172 nM,> 10000 nM,–,–,–
Cc1nc2cc(C#Cc3ccc(-c4ccc(S(=O)(=O)N[C@@H](C)C(=O)O)cc4)cc3)ccc2s1 [III-54],11.3 nM,147 nM,–,–,–
O=C(Nc1ccc(-c2ccc(S(=O)(=O)N[C@@H](Cc3ccccc3)C(=O)O)cc2)cc1)c1cc2ccccc2s1 [VI-48],47.3 nM,> 10000 nM,–,–,–
C[C@@H](NS(=O)(=O)c1ccc(-c2ccc(COc3ccc4ccccc4c3)cc2)cc1)C(=O)O [VII-11],16.2 nM,> 10000 nM,–,–,–
COCc1cccc(C#Cc2ccc(-c3ccc(S(=O)(=O)N[C@@H](CC(C)C)C(=O)O)cc3)cc2)c1 [III-64],21.1 nM,261 nM,–,–,–
Cc1c(C(=O)Nc2ccc(-c3ccc(S(=O)(=O)N[C@H](Cc4ccccc4)C(=O)O)cc3)cc2)oc2ccccc12 [VI-46],96.5 nM,747 nM,–,–,–
COCc1cccc(C#Cc2ccc(-c3ccc(S(=O)(=O)N[C@H](C(=O)O)C(C)C)cc3)cc2)c1 [III-63],9.5 nM,144 nM,–,–,–
CSCC[C@H](NS(=O)(=O)c1ccc(-c2ccc(OCc3ccc4ccccc4c3)cc2)cc1)C(=O)O [VII-9],26.5 nM,188 nM,–,–,–
CC(C)Oc1cccc(C#Cc2ccc(-c3ccc(S(=O)(=O)N[C@@H](C)C(=O)O)cc3)cc2)c1 [III-60],97.8 nM,1170 nM,–,–,–
COc1ccc2cc(C#Cc3ccc(-c4ccc(S(=O)(=O)NC5(C(=O)O)CCCCC5)cc4)cc3)ccc2c1 [III-66],42.4 nM,> 10000 nM,–,–,–
O=C(O)[C@H](CO)NS(=O)(=O)c1ccc(-c2ccc(C#Cc3ccc4sccc4c3)cc2)cc1 [III-55],10.9 nM,494 nM,–,–,–
O=C(O)[C@H](CO)NS(=O)(=O)c1ccc(-c2ccc(C#Cc3ccc4[nH]ccc4c3)cc2)cc1 [III-56],6.05 nM,65.7 nM,–,–,–
COc1ccc2cc(COc3ccc(-c4ccc(S(=O)(=O)N[C@@H](C)C(=O)O)cc4)cc3)ccc2c1 [VII-10],16.5 nM,> 10000 nM,–,–,–
C[C@H](NS(=O)(=O)c1ccc(-c2ccc(C#Cc3cccc(C(=O)O)c3)cc2)cc1)C(=O)O [III-61],6.17 nM,349 nM,–,–,–
COCc1cccc(C#Cc2ccc(-c3ccc(S(=O)(=O)N[C@@H](C)C(=O)O)cc3)cc2)c1 [III-62],18.9 nM,402 nM,–,–,–
